Assay results published in US9603860B2, “Pharmaceutical compositions comprising active drugs, contraceptive kits comprising active drugs, and methods of administering the same” (LABORATORIOS LEON FARMA SA, priority 2010, dated 2017).

Key:
ovulation = assay: Contraceptive efficiency trial, 24/4 regimen (ovulation inhibition, Example 5, Part 3); type: in vivo, human
Procedure: The study was an open-label monocentric trial. […] Excluded were subjects with a (suspected) pregnancy, active or past thromboembolic disorder, present or past severe hepatic disease, carcinoma of the endometrium or other known or suspected estrogen-dependent neoplasia, undiagnosed vaginal bleeding, use of liver enzyme-inducing drugs and other drugs.
The subjects received daily treatment with tablets containing about 4 mg DRSP with a 24/4 regimen during two treatment cycles. The subjects started treatment on the 1st day of the cycle (i.e., the first day of onset of vaginal bleeding) following the screening visit. […]
Blood sampling for hormonal determination (progesterone, 17-beta-estradiol, FSH and LH) was performed every 3 days from day 1 to day 84 and assessments of weight, blood pressure and heart rate were performed at each visit. Serum progesterone, 17-beta-estradiol, FSH and LH concentrations were measured with validated commercial in vitro diagnostic kits (V1DAS, ELFA Biomerieux). […]
The occurrence of ovulation during treatment was determined on the basis of serum progesterone concentration, using the criteria of Landgren et al. Thus, an ovulation was judged to have occurred in case of progesterone concentrations >5.04 ng/ml-sustained for at least 2 consecutive progesterone samples.

[1] = Particle size distribution by laser diffraction in wet dispersion; type: physicochemical; settings: dispersant water
Procedure: The analysis of the particle size distribution of each batch was performed by laser diffraction method in wet dispersion (Helos sensor, Sympatec with the wet disperser Quixel). The dispersant used was water. The full particle dispersion was ensured by ultrasonication.

[2] = Specific area by BET method; type: physicochemical
Procedure: The specific area was determined by the BET method.

| SMILES | d10 [1] [μm] | d50 [1] [μm] | d90 [1] [μm] | d99 [1] [μm] | Specific area [2] [m^2/g] | ovulation during the 2 treatment cycles (ovulation; 24/4 regimen, ovulation = progesterone >5.04 ng/ml in 2 consecutive samples) | women with progesterone above 5.04 ng/mL (return of ovulation) in 28-day follow-up cycle (ovulation; upon cessation of treatment) |
| --- | --- | --- | --- | --- | --- | --- | --- |
| C[C@]12CCC(=O)C=C1[C@@H]1C[C@@H]1[C@H]1[C@@H]3[C@@H]4C[C@@H]4[C@@]4(CCC(=O)O4)[C@@]3(C)CC[C@@H]12 [DRSP, 6b,7b:15b,16b-Dimethylen-3-oxo-17a-pregn-4-ene-21,17-carbolactone] |  |  |  |  |  | no ovulation occurred | 17 out of 20 |
| C[C@]12CCC(=O)C=C1[C@@H]1C[C@@H]1[C@H]1[C@@H]3[C@@H]4C[C@@H]4[C@@]4(CCC(=O)O4)[C@@]3(C)CC[C@@H]12 [compound 080257, Drospirenone] | 5.3 | 12.6 | 23.4 | 35.3 | 0.77 |  |  |
| C[C@]12CCC(=O)C=C1[C@@H]1C[C@@H]1[C@H]1[C@@H]3[C@@H]4C[C@@H]4[C@@]4(CCC(=O)O4)[C@@]3(C)CC[C@@H]12 [compound 080204, Drospirenone] | 4.4 | 13.1 | 24.8 | 34.5 | 0.83 |  |  |
| C[C@]12CCC(=O)C=C1[C@@H]1C[C@@H]1[C@H]1[C@@H]3[C@@H]4C[C@@H]4[C@@]4(CCC(=O)O4)[C@@]3(C)CC[C@@H]12 [compound 080169, Drospirenone] | 2.9 | 24.5 | 37.1 | 48.9 | 0.45 |  |  |
| C[C@]12CCC(=O)C=C1[C@@H]1C[C@@H]1[C@H]1[C@@H]3[C@@H]4C[C@@H]4[C@@]4(CCC(=O)O4)[C@@]3(C)CC[C@@H]12 [compound 080053, Drospirenone] | 7.2 | 19.8 | 34.2 | 44.8 | 0.63 |  |  |

Further lines, with some results ahead:

| d10 [1] [μm] | d50 [1] [μm] | d90 [1] [μm] | d99 [1] [μm] | Specific area [2] [m^2/g] | SMILES | ovulation during the 2 treatment cycles (ovulation; 24/4 regimen, ovulation = progesterone >5.04 ng/ml in 2 consecutive samples) | women with progesterone above 5.04 ng/mL (return of ovulation) in 28-day follow-up cycle (ovulation; upon cessation of treatment) |
| --- | --- | --- | --- | --- | --- | --- | --- |
| 5.9 | 22.4 | 37.4 | 56.1 | 0.26 | C[C@]12CCC(=O)C=C1[C@@H]1C[C@@H]1[C@H]1[C@@H]3[C@@H]4C[C@@H]4[C@@]4(CCC(=O)O4)[C@@]3(C)CC[C@@H]12 [PR100003, Drospirenone] |  |  |
|  |  |  |  | 0.66 | C[C@]12CCC(=O)C=C1[C@@H]1C[C@@H]1[C@H]1[C@@H]3[C@@H]4C[C@@H]4[C@@]4(CCC(=O)O4)[C@@]3(C)CC[C@@H]12 [PR100311, Drospirenone] |  |  |
